Patent US7129368B2, “Platinum carboxylate anticancer compounds” (Sonus Pharmaceuticals, Inc., priority 2004, dated 2006)

How the values were obtained:
[1] = test system: NCI-H460 non-small cell lung cancer cells; test: ALAMAR BLUE cytotoxicity assay in NCI-H460 cells; format: cell-based; conditions: H-460, ALAMAR BLUE, 48 hours incubation with drug
Protocol: (§1) ALAMAR BLUE Assay. […] Cytotoxicity was measured in two cell lines: a colorectal carcinoma cell line (HCT-116); and a non-small cell lung cancer cell line (NCI-H460). The marker used to quantify cell growth inhibition was ALAMAR BLUE, a non-fluorescent blue dye that is reduced to a fluorescent red product by viable cells. The amount of fluorescence is proportional to the number of viable cells.
(§2) Screening in HCT-116 cells. HCT-116 colorectal carcinoma cells (ATCC # CCL-247) were inoculated into a set of twenty-four 96-well microtiter plates containing 100 μl of McCoy's 5A media (HyClone, Logan, Utah) per well to a plating density of 7500 cells per well. After cell inoculation, the microtiter plates were incubated at 37° C., 5% CO2, 95% air and 100% relative humidity for 24 hours. After 24 hours incubation, ALAMAR BLUE reagent (Biosource, Camarillo, Calif.) was added to two plates to a final concentration of 10% v/v in each well. The plates were returned to the incubator for 4 hours and then read in a Perkin Elmer HTS 7000 Bio Assay Reader using an excitation wavelength of 535 nm and an emission wavelength of 590 nm to determine the cell population at the time of drug addition—time zero.
(§3) Two no-drug control plates were also prepared.
(§4) Following drug addition, the plates were incubated for an additional 48 hours at the conditions above.
(§5) After 48 hours of incubation the plates were removed and ALAMAR BLUE reagent was added to a final concentration of 10% v/v to each well. The plates were returned to the incubator for 4 hours and read in the Bio Assay Reader as described above.
Screening in NCI-H460 cells. The screening protocol above was repeated using NCI-H460 non-small cell lung cancer cells (ATCC # HTB-177) plated to a density of 10,000 cells per well in RPMI media (Mediatech, Inc., Herndon, Va.).

[2] = test system: HCT-116 colorectal carcinoma cells; test: ALAMAR BLUE cytotoxicity assay in HCT-116 cells; format: cell-based; conditions: HCT-116, ALAMAR BLUE, 48 hours incubation with drug
Protocol: as §1, §2, §3, §4, §5

[3] = test system: NCI-H69/AR small cell lung cancer cell line; test: MTS cytotoxicity assay in NCI-H69/AR cells; format: cell-based; conditions: 72 hours of treatment, read-out: Growth Inhibition (GI50)
Protocol: (§6) MTS Assay. […] Cytotoxicity was measured in six cell lines: two colorectal carcinoma cell lines, HT29 (ATCC # CCL-218) and HCT-116 (ATCC # CCL-247); two small cell lung cancer cell lines, NCI-H69 (ATCC # HTB-119) and NCI-H69/AR (ATCC # CRL-11351); and two ovarian cancer cell lines, A2780 (ECACC # 93112519) and A2780/DPPt (similar strain, A2780 cis, available at ECACC # 93112517). Viable cell number was measured using the MTS cell viability assay ([…] 96 AQueous One Solution Cell Proliferation Assay kit available from Promega, USA). Cell growth inhibition was quantified by measuring absorbance at 490 nm, which is directly proportional to the number of living cells in culture.
(§7) The platinum compounds were prepared as 10 mM stock solutions in water containing 5% dextrose (D5W). Cisplatin was prepared in saline. Dosing solutions were prepared by serial dilution of the stock solutions in cell culture medium to provide final concentrations of 0.006–100 μM.
(§8) All tumor lines were propagated under sterile conditions and incubated at 37° C. in HEPA-filtered CO2 tissue culture incubators with 5% CO2 and 95% humidity in colorless RPMI 1640 medium (Mediatech, Hemdon, Va.) containing 5% fetal bovine serum (complete medium). […]
(§9) Viable cell number was measured by the MTS dye conversion assay after a total of 72 hours of treatment. […] The absorbance was measured at 490 nm on a Coulter microplate reader.

[4] = Effect of pH on CDTA-diplatinum/CDTA-monoplatinum interconversion (HPLC); format: physicochemical
Protocol: Cyclohexane-trans-1,2-diaminetetraacetic-acid-diplatinum (CDTA-diplatinum) was prepared according to Example 1. Three solutions of CDTA-diplatinum were prepared: 1 mg/ml in water (pH ˜6.5) (Solution 1); 1 mg/ml in 0.01 N NaOH (pH˜9.5) (Solution 2); and 1 mg/ml in 0.01 N HCl (pH˜2) (Solution 3).

[5] = test system: HT29 colorectal carcinoma cell line; test: MTS cytotoxicity assay in HT29 cells; format: cell-based; conditions: 72 hours of treatment, read-out: Growth Inhibition (GI50)
Protocol: as §6, §7, §8, §9

[6] = test system: NCI-H69 small cell lung cancer cell line; test: MTS cytotoxicity assay in NCI-H69 cells; format: cell-based; conditions: 72 hours of treatment, read-out: Growth Inhibition (GI50)
Protocol: as §6, §7, §8, §9

[7] = test system: HCT-116 colorectal carcinoma cell line; test: MTS cytotoxicity assay in HCT-116 cells; format: cell-based; conditions: HCT-116, MTS, 72 hours of treatment; read-out: Growth Inhibition (GI50)
Protocol: as §6, §7, §8, §9

[8] = test system: A2780/DPPt ovarian cancer cell line; test: MTS cytotoxicity assay in A2780/DPPt cells; format: cell-based; conditions: A2780/DDPT, 72 hours of treatment, read-out: Growth Inhibition (GI50)
Protocol: MTS Assay. […] Cytotoxicity was measured in six cell lines: two colorectal carcinoma cell lines, HT29 (ATCC # CCL-218) and HCT-116 (ATCC # CCL-247); two small cell lung cancer cell lines, NCI-H69 (ATCC # HTB-119) and NCI-H69/AR (ATCC # CRL-11351); and two ovarian cancer cell lines, A2780 (ECACC # 93112519) and A2780/DPPt (similar strain, A2780 cis, available at ECACC # 93112517). Viable cell number was measured using the MTS cell viability assay ([sequence] 96 AQueous One Solution Cell Proliferation Assay kit available from Promega, USA). Cell growth inhibition was quantified by measuring absorbance at 490 nm, which is directly proportional to the number of living cells in culture.

[9] = test system: A2780 ovarian cancer cell line; test: MTS cytotoxicity assay in A2780 cells; format: cell-based; conditions: 72 hours of treatment, read-out: Growth Inhibition (GI50)
Protocol: as §6, §7, §8, §9

[10] = Solution 1: 1 mg/ml in water (pH ~6.5)
[11] = Solution 2: 1 mg/ml in 0.01 N NaOH (pH ~9.5)
[12] = Solution 3: 1 mg/ml in 0.01 N HCl (pH ~2)

Compound	GI50 [1] [µM]	GI50 [2] [µM]	GI50 [3] [µM]	percentage of species by HPLC in a solution of CDTA-diplatinum (Example 1) [4, 10] [%]	percentage of species by HPLC in a solution of CDTA-diplatinum (Example 1) [4, 11] [%]	percentage of species by HPLC in a solution of CDTA-diplatinum (Example 1) [4, 12] [%]	GI50 [5] [µM]	GI50 [6] [µM]	GI50 [7] [µM]	GI50 [8] [µM]	GI50 [9] [µM]
N.N.O=C([O-])C1(C(=O)[O-])CCC1.[Pt+2] [Carboplatin, cis-diamine[1,1-cyclobutanedicarboxylato(2-)]—O,O′-platinum (II), reference compound]	9	159									
N.N.[Cl][Pt][Cl] [Cisplatin, cis-[PtCl2(NH3)2], reference compound]	469	4									
cyclohexane-trans-1,2-diaminetetraacetic-acid-diplatinum [CDTA-diplatinum]	0.371	0.55	8.9	54	1	2	78	6.69	24	49	5.45
cyclohexane-trans-1,2-diaminetetraacetic-acid-monoplatinum [CDTA-monoplatinum]	9.71	6.4	18	45	99	98	65	10	38		5.57
